# Measured values published in patent US7138361B2, “Herbicidal heterocycles” (E. I. du Pont de Nemours and Company, priority 2000, dated 2006).
# Experiments:
# Type in all cases: in vivo
# [1] = system: barnyardgrass (Echinochloa crus-galli); assay: Test C flooded paddy test; conditions: for Barnyardgrass plant response rating: Flooded Paddy, scale 0 to 100, 0 no effect, 100 complete control; for Plant response rating, Barnyardgrass: flooded paddy test, scale 0 to 100 (0 no effect, 100 complete control)
# Procedure, shortened: (§1)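 Plants were grown to the 2-leaf stage under flooded paddy conditions and treated. They were then kept in a greenhouse for 12 to 14 days and visually rated against untreated controls on a 0–100 scale, where 0 is no effect and 100 is complete control.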
# [2] = system: duck salad (Heteranthera limosa); assay: Test C flooded paddy test; conditions: for Ducksalad plant response rating: Flooded Paddy, scale 0 to 100, 0 no effect, 100 complete control; for Plant response rating, Ducksalad: flooded paddy test, scale 0 to 100 (0 no effect, 100 complete control)
# Procedure, shortened: as §1
# [3] = system: smallflower flatsedge (Cyperus difformis); assay: Test C flooded paddy test; conditions: for Flatsedge plant response rating: Flooded Paddy, scale 0 to 100, 0 no effect, 100 complete control; for Plant response rating, Flatsedge: flooded paddy test, scale 0 to 100 (0 no effect, 100 complete control)
# Procedure, shortened: as §1
# [4] = system: Surinam grass (Brachiaria decumbens); assay: Test C preemergence
# Procedure, shortened: (§2)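 Herbicidal effect is a visual 0–100 score (100 = complete control) assigned versus untreated plants, 12 to 14 days after spraying in the greenhouse. Test compounds were applied in a non-phytotoxic, surfactant-containing solvent.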
# [5] = system: giant foxtail (Setaria faberii); assay: Test C preemergence
# Procedure, shortened: as §2
# Sunflower = assay: Test C preemergence
# [6] = system: yellow nutsedge (Cyperus esculentus); assay: Test C preemergence
# Procedure, shortened: as §2
# [7] = system: morningglory (Ipomoea hederacea); assay: Test C preemergence
# Procedure, shortened: as §2
# Nightshade = assay: Test C preemergence
# [8] = system: pigweed (Amaranthus retroflexus); assay: Test C preemergence
# Procedure, shortened: as §2
# [9] = system: johnsongrass (Sorghum halepense); assay: Test C preemergence
# Procedure, shortened: as §2
# [10] = system: cocklebur (Xanthium strumarium); assay: Test C preemergence
# Procedure, shortened: as §2
# corn (Zea mays) = assay: Test C preemergence
# Procedure, shortened: as §2
# [11] = system: common ragweed (Ambrosia elatior); assay: Test C preemergence
# Procedure, shortened: as §2
# [12] = system: woolly cupgrass (Eriochloa villosa); assay: Test C preemergence
# Procedure, shortened: as §2
# kochia (Kochia scoparia) = assay: Test C preemergence
# Procedure, shortened: as §2
# [13] = system: crabgrass (Digitaria sanguinalis); assay: Test C preemergence
# Procedure, shortened: as §2
# [14] = system: velvetleaf (Abutilon theophrasti); assay: Test C preemergence
# Procedure, shortened: as §2
# [15] = system: lambsquarters (Chenopodium album); assay: Test C preemergence
# Procedure, shortened: as §2
# soybean (Glycine max) = assay: Test C preemergence
# Procedure, shortened: as §2
# [16] = system: goosegrass (Eleusine indica); assay: Test C preemergence
# Procedure, shortened: as §2
# [17] = system: bermudagrass (Cynodon dactylon); assay: Test C preemergence
# Procedure, shortened: as §2
# [18] = Preemergence, Rate 500 g/ha, scale 0 to 100
# [19] = Rate 62 g/ha, scale 0 to 100, 0 no effect, 100 complete control
# [20] = preemergence, Rate 250 g/ha, visual evaluation after 12 to 14 days
# [21] = preemergence, Rate 125 g/ha, scale 0 to 100, 0 no effect, 100 complete control
smiles,measurement,setting,value
O=C1C(n2ccc(C3CCC3)n2)OCN1c1cccc(C(F)(F)F)c1 (centres unmarked) [Compound 39],Barnyardgrass plant response rating,[1]; Rate 250 g/ha,100
same,Barnyardgrass plant response rating,[1]; Rate 500 g/ha,100
same,"Plant response rating, Barnyardgrass",[1]; Rate 62 g/ha,80
same,"Plant response rating, Barnyardgrass",[1]; Rate 125 g/ha,80
same,Ducksalad plant response rating,[2]; Rate 250 g/ha,70
same,Ducksalad plant response rating,[2]; Rate 500 g/ha,100
same,"Plant response rating, Ducksalad",[2]; Rate 62 g/ha,20
same,"Plant response rating, Ducksalad",[2]; Rate 125 g/ha,60
same,Flatsedge plant response rating,[3]; Rate 250 g/ha,100
same,Flatsedge plant response rating,[3]; Rate 500 g/ha,100
same,"Plant response rating, Flatsedge",[3]; Rate 62 g/ha,90
same,"Plant response rating, Flatsedge",[3]; Rate 125 g/ha,100
same,"Plant response rating, Surinam grass",[4]; [18],80
same,"Plant response rating, Surinam grass",[4]; [19],0
same,"Plant response rating (0 to 100), Surinam grass",[4]; [20],0
same,"Plant response rating, Surinam grass",[4]; [21],0
same,"Plant response rating, Foxtail, Giant",[5]; [18],100
same,"Plant response rating, Foxtail, Giant",[5]; [19],0
same,"Plant response rating (0 to 100), Foxtail, Giant",[5]; [20],0
same,"Plant response rating, Foxtail, Giant",[5]; [21],0
same,"Plant response rating, Sunflower",Sunflower; [19],0
same,"Plant response rating, Sunflower","Sunflower; Rate 500 g/ha, scale 0 to 100",0
same,"Plant response rating, Nutsedge",[6]; [18],40
same,"Plant response rating, Nutsedge",[6]; [19],0
same,"Plant response rating (0 to 100), Nutsedge",[6]; [20],0
same,"Plant response rating, Nutsedge",[6]; [21],0
same,"Plant response rating, Morningglory",[7]; [18],0
same,"Plant response rating, Morningglory",[7]; [19],0
same,"Plant response rating (0 to 100), Morningglory",[7]; [20],0
same,"Plant response rating, Morningglory",[7]; [21],0
same,"Plant response rating, Nightshade",Nightshade; [19],0
same,"Plant response rating, Nightshade","Nightshade; Rate 125 g/ha, scale 0 to 100, 0 no effect, 100 complete control",0
same,"Plant response rating, Nightshade","Nightshade; Rate 500 g/ha, scale 0 to 100",0
same,"Plant response rating, Pigweed",[8]; [18],100
same,"Plant response rating, Pigweed",[8]; [19],0
same,"Plant response rating (0 to 100), Pigweed",[8]; [20],0
same,"Plant response rating, Pigweed",[8]; [21],0
same,"Plant response rating, Johnsongrass",[9]; [18],90
same,"Plant response rating, Johnsongrass",[9]; [19],0
same,"Plant response rating (0 to 100), Johnsongrass",[9]; [20],70
same,"Plant response rating, Johnsongrass",[9]; [21],0
same,"Plant response rating, Cocklebur",[10]; [18],0
same,"Plant response rating, Cocklebur",[10]; [19],0
same,"Plant response rating, Corn",corn (Zea mays); [18],70
same,"Plant response rating, Corn",corn (Zea mays); [19],0
same,"Plant response rating (0 to 100), Corn",corn (Zea mays); [20],0
same,"Plant response rating, Corn",corn (Zea mays); [21],0
same,"Plant response rating, Ragweed, Common",[11]; [18],20
same,"Plant response rating, Ragweed, Common",[11]; [19],0
same,"Plant response rating (0 to 100), Ragweed, Common",[11]; [20],0
same,"Plant response rating, Ragweed, Common",[11]; [21],0
same,"Plant response rating, Cupgrass, Woolly",[12]; [18],100
same,"Plant response rating, Cupgrass, Woolly",[12]; [19],0
same,"Plant response rating (0 to 100), Cupgrass, Woolly",[12]; [20],90
same,"Plant response rating, Cupgrass, Woolly",[12]; [21],20
same,"Plant response rating, Kochia",kochia (Kochia scoparia); [18],90
same,"Plant response rating, Kochia",kochia (Kochia scoparia); [19],0
same,"Plant response rating (0 to 100), Kochia",kochia (Kochia scoparia); [20],70
same,"Plant response rating, Kochia",kochia (Kochia scoparia); [21],50
same,"Plant response rating, Crabgrass",[13]; [18],100
same,"Plant response rating, Crabgrass",[13]; [19],90
same,"Plant response rating (0 to 100), Crabgrass",[13]; [20],100
same,"Plant response rating, Crabgrass",[13]; [21],100
same,"Plant response rating, Velvetleaf",[14]; [18],0
same,"Plant response rating, Velvetleaf",[14]; [19],0
same,"Plant response rating (0 to 100), Velvetleaf",[14]; [20],0
same,"Plant response rating, Velvetleaf",[14]; [21],0
same,"Plant response rating, Lambsquarters",[15]; [18],100
same,"Plant response rating, Lambsquarters",[15]; [19],100
same,"Plant response rating (0 to 100), Lambsquarters",[15]; [20],100
same,"Plant response rating, Lambsquarters",[15]; [21],100
same,"Plant response rating, Soybean",soybean (Glycine max); [18],0
same,"Plant response rating, Soybean",soybean (Glycine max); [19],0
same,"Plant response rating (0 to 100), Soybean",soybean (Glycine max); [20],0
same,"Plant response rating, Soybean",soybean (Glycine max); [21],0
same,"Plant response rating, Goosegrass",[16]; [18],100
same,"Plant response rating, Goosegrass",[16]; [19],80
same,"Plant response rating (0 to 100), Goosegrass",[16]; [20],100
same,"Plant response rating, Goosegrass",[16]; [21],90
same,"Plant response rating, Bermudagrass",[17]; [18],100
same,"Plant response rating, Bermudagrass",[17]; [19],90
same,"Plant response rating (0 to 100 where 0 is no effect and 100 is complete control), Bermudagrass",[17]; [20],100
same,"Plant response rating, Bermudagrass",[17]; [21],90
